# Measurements taken from ChEMBL document CHEMBL4033603, “Spongian-16-one Diterpenes and Their Anatomical Distribution in the Australian Nudibranch Goniobranchus collingwoodi” (J Nat Prod, 2017).
# Columns and labels:
# Type in all cases: functional, cell-based
# L1210 = assay: Cytotoxicity against mouse L1210 cells assessed as reduction in cell viability
# KB = assay: Cytotoxicity against human KB cells assessed as reduction in cell viability
# SW-620 = assay: Cytotoxicity against human SW620 cells assessed as reduction in cell viability after 48 hrs by MTT assay; settings: SW-620, 48 h
# NCI-H460 = assay: Cytotoxicity against human NCI-H460 cells assessed as reduction in cell viability after 48 hrs by MTT assay; settings: NCI-H460, 48 h
# HepG2 = assay: Cytotoxicity against human HepG2 cells assessed as reduction in cell viability after 48 hrs by MTT assay; settings: HepG2, 48 h
structure (smiles),measurement,setting,value
CC1(C)CCC[C@]2(C)[C@H]3CC[C@H]4C(=O)OC[C@H]4[C@]3(C)CC[C@@H]12,IC50,L1210,16.4 µM
same,IC50,KB,30.2 µM
CC(=O)O[C@@H]1C[C@H]2C(C)(C)CCC[C@]2(C)[C@H]2CC[C@H]3C(=O)OC[C@H]3[C@@]21C,IC50,L1210,6.1 µM
same,IC50,KB,44.1 µM
CC(=O)OC[C@]12CCCC(C)(C)[C@@H]1CC[C@@]1(C)[C@@H]3COC(=O)[C@@H]3[C@@H](OC(C)=O)C[C@@H]12,IC50,SW-620,> 30 µM
same,IC50,NCI-H460,> 30 µM
same,IC50,HepG2,> 30 µM
CCC(=O)OC[C@]12CCCC(C)(C)[C@@H]1CC[C@@]1(C)[C@@H]3COC(=O)[C@@H]3C[C@H](OC(C)=O)[C@@H]12,IC50,SW-620,> 30 µM
same,IC50,NCI-H460,> 30 µM
same,IC50,HepG2,> 30 µM
CCC(=O)O[C@@H]1C[C@H]2C(=O)OC[C@H]2[C@@]2(C)[C@H]1[C@@]1(C)CCCC(C)(C)[C@@H]1C[C@H]2OC(=O)CC(C)C,IC50,SW-620,> 30 µM
same,IC50,NCI-H460,> 30 µM
same,IC50,HepG2,> 30 µM
CC(=O)OC[C@]12CCCC(C)(C)[C@@H]1CC[C@@]1(C)[C@@H]3COC(=O)[C@@H]3C[C@H](OC(C)=O)[C@@H]12,IC50,SW-620,> 30 µM
same,IC50,NCI-H460,> 30 µM
same,IC50,HepG2,> 30 µM
CCC(=O)OC[C@]12CCCC(C)(C)[C@@H]1CC[C@@]1(C)[C@@H]3COC(=O)[C@@H]3[C@@H](OC(C)=O)C[C@@H]12,IC50,SW-620,> 30 µM
same,IC50,NCI-H460,> 30 µM
same,IC50,HepG2,> 30 µM
CCC(=O)OC[C@]12CCCC(C)(C)[C@@H]1C[C@@H](OC(=O)CC(C)C)[C@@]1(C)[C@@H]3COC(=O)[C@@H]3C[C@H](O)[C@H]21,IC50,SW-620,> 30 µM
same,IC50,NCI-H460,> 30 µM
same,IC50,HepG2,> 30 µM
